# Test results as given in PMC12069340 (Frontiers in Cellular and Infection Microbiology, 2025).
# Where a name gives a salt, the structure may show the parent alone.
# Test system: A/PuertoRico/8/1934 (H1N1 H274Y)
# Type: cell-based, influenza A virus
row,Structure (SMILES),IC50 [µM]
1,CCCN(CCc1cccs1)[C@H]1CCc2c(O)cccc2C1 [Rotigotine],8.6
2,O=C(c1ccc(OCCCc2cnc[nH]2)cc1)C1CC1 [Ciproxifan],5.9
3,"CC(COc1ccccc1)NC(C)C(O)c1ccc(O)cc1 (stereo not drawn) [Isoxsuprine, Isoxsuprine hydrochloride]",9.3
